Data reported in patent US20190240502A1, “METHODS, COMPOSITIONS AND APPARATUSES FOR TREATING PSORIASIS BY PHOTOTHERAPY” (Luma Therapeutics, Inc., priority 2016, published 2019).

Type: physicochemical
Protocol: In forming the dressing shown in FIGS. 19A and 19B, the gel may be heat cured (e.g., at between 30-40° C. for between 1-4 hours, e.g., 2 hours at 35° C.). As will be described in more detail below, a very high salt (e.g., MgCl2), such as between 5% and 50% (weight of salt to weight of gel total) may be added to the hydrogel. For example 10% MgCl2 may be used which may help keep the coal tar globules or clusters from dissolving into the gel. […] In the context of the dressings described herein, a decrease in U.V. transmittance may require a longer treatment time (given that power output from the light cannot be increased) or may make treatment with the dressing impossible or impractical. […] Typically the greater the percentage of MgCl2 the better the effect. However, 5% or more may be sufficient; if longer shelf life for the dressings (e.g., beyond one week, two weeks, three weeks, on month, two months, three months, six months, 1 year, etc.) is desired higher MgCl2 percentages (e.g., 7.5%, 10%, or more) may be used.

Row | solubility of coal tar | Compound | effect of additive on coal tar solubility in hydrogel
1 |  | OC[C@@H](O)[C@@H](O)[C@H](O)[C@@H](O)CO [Sorbitol, sorbitol] | increased solubility of coal tar in water
2 | low solubility | coal tar | 
3 |  | [Cl-].[Cl-].[Mg+2] [MgCl2] | lower coal tar solubility
